From patent US8466291B2, “1,5-dideoxy-1,5-imino-D-glucitol compounds” (Academia Sinica, priority 2008, dated 2013) come the findings set out here.

Each structure is given as a SMILES string.

For the assay, the target named is Bacteroids fragilis O-GlcNAcase (Bacteroides fragilis, UniProt Q5L8V6). The experiment in a line: Michaelis-Menten/Lineweaver-Burk kinetic inhibition of O-GlcNAcase with 4MU-NAG substrate. The class given is biochemical. As for the experimental part:
Bacteroids fragilis O-GlcNAcase, which is highly homologous to human O-GlcNAcase, was prepared as follows. Based on the genome sequence of B. fragilis (NCTC 9343) as disclosed in GenBank accession no. CR626927 (Oct. 23, 2008), a DNA fragment encoding the B. fragilis O-GlcNAcse was amplified via polymerase chain reaction (PCR), using the primers of: 5′-[…]-3′ (SEQ ID NO:1) (forward primer) and 5′-[…]-3′ (SEQ ID NO:2) (reverse primer). The PCR product was cloned into pGEM-T Easy vector (Promega) via cloning sites Nde1 and Xho1 and then subcloned into pET21b vector to produce expression plasmid pOGA, which encodes a fusion protein including O-GlcNAcase and a His6 tag at the C-terminus
Plasmid pOGA was transformed into E. coli BL21 (DE3) cells and a positive transformant was cultured in Luria-Bertani (LB) medium with ampicillin (100 μg/mL) overnight. The E. coli culture, transferred to fresh LB medium, was incubated at 37° C. and, when A600 of the culture reached 0.6, isopropyl-β-D-thiogalactopyranoside (final conc: 250 μM) was added to induce expression of O-GlcNAcse. The induced cells were further cultured at 16° C. overnight, harvested, and disrupted to produce a cell lysate. Upon centrifugation, the supernatant thus obtained was loaded onto a nickel-affinity column. After elution, a fraction containing O-GlcNAcse was collected and the enzyme contained therein was further purified by gel filtration using a Superdex 6 column. See Dennis et al., Nat Struct Mol Biol 2006, 13: 365-71. The purified protein was concentrated using a 10 kDa-cutoff concentrator and dialyzed against 20 mM HEPES (pH 7.5).
The reaction conditions for each enzyme are shown below:
O-GlcNAcase: reaction mixture (0.5 nM O-GlcNAcase (200 μL) in 50 mM citric acid, 100 mM NaCl, 0.1% BSA, 0.05-1.5 mM substrate, pH 4.25) was incubated at 30° C. for 25 minutes. The enzyme activity at different time points was determined by measuring the levels of the fluorescent signals (excitation wavelength: 360 nm; emission wavelength: 460 nm) released from 4-methylumbelliferone, a product of the enzyme reaction.
In these reactions, the substrate concentrations were three to five fold of the concentration used for determining KM (absent compounds) and the ratio between the enzyme and the compound was 0.1-0.5 nM to 0.3 nM-200 uM. The data thus obtained were analyzed by the Lineweaver-Burk plot. The K1 values were determined by the double reciprocal plot (1/V vs. 1/[S]). More specifically, the Km values for each enzyme in the presence of one of the test compounds first determined and these values were further plotted in view of the concentrations of the compound. K1 was determined by calculating the negative value of the resulting x-intercept. The selectivity of each compound was calculated by the formula: K1 O-GlcNAcase/K1 Hex B.

Chain of Bacteroids fragilis O-GlcNAcase (Q5L8V6 entry or part of it): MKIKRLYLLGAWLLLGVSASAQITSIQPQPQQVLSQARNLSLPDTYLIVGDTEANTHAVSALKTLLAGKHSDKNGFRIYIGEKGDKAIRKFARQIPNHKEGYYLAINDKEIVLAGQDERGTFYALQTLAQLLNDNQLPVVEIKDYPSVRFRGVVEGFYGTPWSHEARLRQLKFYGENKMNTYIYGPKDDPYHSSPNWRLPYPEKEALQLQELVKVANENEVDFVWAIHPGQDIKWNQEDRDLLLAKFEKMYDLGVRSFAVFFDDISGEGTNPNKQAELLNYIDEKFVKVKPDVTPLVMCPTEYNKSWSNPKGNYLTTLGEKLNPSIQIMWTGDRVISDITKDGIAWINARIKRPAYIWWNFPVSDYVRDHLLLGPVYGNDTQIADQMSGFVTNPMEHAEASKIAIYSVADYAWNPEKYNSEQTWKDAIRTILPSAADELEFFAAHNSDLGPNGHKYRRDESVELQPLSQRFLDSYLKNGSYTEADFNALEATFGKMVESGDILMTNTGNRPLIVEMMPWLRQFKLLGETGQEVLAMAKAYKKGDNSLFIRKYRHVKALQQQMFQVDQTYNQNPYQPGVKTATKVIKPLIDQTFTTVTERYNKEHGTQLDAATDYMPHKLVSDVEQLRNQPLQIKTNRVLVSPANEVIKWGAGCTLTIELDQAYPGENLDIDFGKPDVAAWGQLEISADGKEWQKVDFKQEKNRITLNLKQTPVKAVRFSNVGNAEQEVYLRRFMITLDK

The term Ki denotes the equilibrium dissociation constant of an inhibitor or competing ligand from its target. A low value points to higher affinity. Take `CC(=O)NC1CN(CCCCCCCNC(=O)CCCCC2SCC3NC(=O)NC32)C(CO)C(O)C1O` (centres unmarked) [Compound 5]: affinity was put at a Ki of 69.6 ± 1.77 µM. The “Selectivity (KI O-GlcNAcase/KI HEX)” value (Bacteroids fragilis O-GlcNAcase over human HEX B, Table 1) is on record as 2,600.
